These results are taken from PMC10315697, “Evaluation of ^134Ce/^134La as a PET Imaging Theranostic Pair for ^225Ac α-Radiotherapeutics” (Journal of Nuclear Medicine, 2023).

On the set-up of series [1]: method as in PMID 34190542. Conditions: for nonradioactive cerium ref 14; cited from earlier work.
Series [2] in a line: Ex vivo biodistribution of free and chelated ^134Ce/^225Ac in healthy mice. Conditions: healthy wild-type C57BL/6 mice, tail vein injection, 1 h for ^134Ce.

For the molecule `O=C(O)c1cccc(CN2CCOCCOCCN(Cc3cccc(C(=O)O)n3)CCOCCOCC2)n1` [MACROPA], the “stability (KLnL)” value in series [1] is 15.1.
`[Cl][134Ce]([Cl])[Cl]` [^134CeCl3]: in series [2], the bone uptake is on record as 15.54 ± 2.69 %ID/g and the liver uptake is recorded as 71.5 ± 4.3 %ID/g.
As for `O=C([O-])CN1CCN(CC(=O)[O-])CCN(CC(=O)[O-])CCN(CC(=O)[O-])CC1.[225Ac+3]` [^225Ac-DOTA], in series [2], the blood uptake was found to be 0.23 ± 0.02 %ID/g, the bone uptake worked out at 2.26 ± 0.56 %ID/g, the kidney uptake is 3.07 ± 0.99 %ID/g and the liver uptake is listed as 0.28 ± 0.008 %ID/g.
In series [2], `[225Ac+3].[Cl-].[Cl-].[Cl-]` [^225AcCl3] yielded a bone uptake of 29.56 ± 2.40 %ID/g and a liver uptake of 38.33 ± 6.75 %ID/g.
